The values that follow come from patent US9840509B2, “Heterocyclic compounds” (CADILA HEALTHCARE LIMITED, priority 2014, dated 2017).

Data set [1] has as its target T1, recombinant purified human BTK (Homo sapiens, UniProt Q06187).
T1 construct: purchased SignalChem, USA
As to the kind of experiment: In vitro BTK kinase assay on ADP Glo platform. The class given is biochemical. The conditions noted are these: 2 hr room temperature, read-out: In-vitro BTK inhibitory activity: IC50. On the procedure:
Testing of Compounds of the Invention Biological Studies: In vitro BTK Inhibitory Activity Assay:
In vitro BTK inhibitory activity of test compounds were screened using BTK kinase assay on ADP Glo platform (Li, H., Totoritis, R. D., Lor, L. A., Schwartz, B., Caprioli, P., Jurewicz, A. J and Zhang, G., Assay Drug Dev. Technol., 2009, 7(6), 598-605). Briefly, fixed amount of recombinant purified human BTK (3 ng/reaction from SignalChem, USA) were incubated with increasing concentration of test compounds, in 1× kinase reaction buffer (40 mM Tris-Cl, pH7.5, 20 mM MgCl2, 2 mM MnCl2, 0.1 mg/ml BSA and 50 μM DTT). Enzymatic reaction was initiated by adding a substrate cocktail containing 50 µM of ATP (final concentration) and […] of polyGln4Tyr1 (Signal Chem) in total 25 μl of reaction, in round bottom white 96 well plate. The reaction mixture was incubated at room temperature for 2 hr. After 2 hr of incubation, 10 μl of the reaction mix was mixed with […] of ADP Glo reagent, in another round bottom white 96 well plate and incubated at room temperature for 40 min. This was followed by addition of kinase detection reagent (20 μl per reaction) and incubation at room temperature for 30 min. Finally, plate was read for luminescence at an integration time of 500 millisecond per well. Data were plotted taking Enzyme with no inhibitor set as the 100% kinase activity and for dose response curve, % Kinase activity was plotted against conc on Log scale and IC50 was determined by non linear curve fitting method using GraphPad Prism software 6. The in vitro BTK inhibitory activity (IC50) for representative compounds are listed in […]

The target of a further data set is T2, CYP 1A2 (Homo sapiens, UniProt P05177).
T2 construct: from tissue; host or cells: human liver microsomes
T2 sequence (P05177 1-516): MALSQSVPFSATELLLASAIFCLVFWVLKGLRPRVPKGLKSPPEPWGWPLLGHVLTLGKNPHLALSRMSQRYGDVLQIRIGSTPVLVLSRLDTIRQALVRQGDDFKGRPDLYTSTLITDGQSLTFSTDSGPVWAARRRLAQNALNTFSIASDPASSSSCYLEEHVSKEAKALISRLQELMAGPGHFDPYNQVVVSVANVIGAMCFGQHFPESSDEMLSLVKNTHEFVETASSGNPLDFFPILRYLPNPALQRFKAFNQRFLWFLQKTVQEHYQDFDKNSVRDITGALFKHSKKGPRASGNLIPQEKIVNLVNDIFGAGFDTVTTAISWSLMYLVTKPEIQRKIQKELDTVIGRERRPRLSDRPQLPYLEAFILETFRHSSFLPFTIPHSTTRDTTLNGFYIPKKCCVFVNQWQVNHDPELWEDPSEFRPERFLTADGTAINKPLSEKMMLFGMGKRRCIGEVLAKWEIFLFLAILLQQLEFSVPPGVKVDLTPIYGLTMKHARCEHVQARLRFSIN
The data set is described as follows: CYP inhibition in human liver microsomes, 1A2. In kind it is in vitro ADME. Particulars: pH 7.4, @ 10 μM concn. On the procedure: (§1) CYP Inhibition Studies: CYP inhibition studies were performed with test compounds, at two concentrations ([…] and 10 μM), using human liver microsomes (Yao, M., Zhu, M., Sinz, M. W., Zhang, H., Humphreys, W. F., Rodrigues, A. D and Dai, R., Journal of Pharmaceutical and Biomedical Analysis, 2007, 44, 211-223; Walsky, R. L and Obach, R. S., Drug Metab. Dispos., 2004, 32, 647-660). Human liver microsomes were mixed with 100 mM phosphate buffer (pH 7.4) and probe substrate and warmed to […] in microcentrifuge tubes. Aliquots of this mixture (499 μL) were transferred to each pre-labeled microcentrifuge tubes, followed by addition of the 1 μL of inhibitors (test compound/CYP-specific positive control inhibitor) or control solvent (DMSO). Aliquots of this mixture (90 μL) were transferred to each pre-labeled microcentrifuge tubes in duplicate. Final solvent concentrations were 0.2% (v/v) or less. Incubations were commenced with the addition of 10 μL NADPH stock (assay concentration, 1 mM) to a final incubation volume of 100 μL and incubated in shaking water bath (at 37° C. and 100 rpm), for the period defined in Tables 1. Incubations were terminated by addition of 400 μL of termination solvent (CH3CN) containing internal standard. The terminated samples were vortex-mixed, centrifuged at 10000 rpm for 5 min and supernatant transferred into HPLC vials for LC-MS/MS analysis to monitor metabolites produced by marker CYP reactions. […] Animals
For orientation: Liver microsomes are vesicles of endoplasmic reticulum, rich in cytochrome P450 enzymes.

The target of a further data set is T3, CYP 2C8 (Homo sapiens, UniProt P10632).
T3 construct: from tissue; host or cells: human liver microsomes
T3 sequence (P10632 1-490): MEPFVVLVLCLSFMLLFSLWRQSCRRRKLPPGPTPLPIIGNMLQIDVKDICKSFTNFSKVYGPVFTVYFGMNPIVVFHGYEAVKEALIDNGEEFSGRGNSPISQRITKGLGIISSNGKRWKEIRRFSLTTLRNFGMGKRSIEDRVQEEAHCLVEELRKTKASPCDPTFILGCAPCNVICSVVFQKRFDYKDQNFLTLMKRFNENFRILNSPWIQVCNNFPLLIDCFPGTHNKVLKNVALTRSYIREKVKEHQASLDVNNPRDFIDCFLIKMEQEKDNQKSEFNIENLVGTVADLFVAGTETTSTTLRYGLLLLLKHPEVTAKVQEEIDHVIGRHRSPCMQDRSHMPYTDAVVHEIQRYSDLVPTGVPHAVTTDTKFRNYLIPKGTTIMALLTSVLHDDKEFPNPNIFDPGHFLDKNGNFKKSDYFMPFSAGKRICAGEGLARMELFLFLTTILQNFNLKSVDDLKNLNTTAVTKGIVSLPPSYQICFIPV
The data set is described as follows: CYP inhibition in human liver microsomes, 2C8. In kind it is in vitro ADME. The conditions noted are these: pH 7.4, @ 10 μM concn. On the procedure: as §1

A further data set concerns the target T4, CYP 2C9 (Homo sapiens, UniProt P11712).
T4 construct: from tissue; host or cells: human liver microsomes
The data set is described as follows: CYP inhibition in human liver microsomes, 2C9. The class given is in vitro ADME. Particulars: pH 7.4, @ 10 μM concn. The procedure:
as §1

A further data set concerns the target T5, CYP 2C19 (Homo sapiens, UniProt P33261).
T5 construct: from tissue; host or cells: human liver microsomes
The data set is described as follows: CYP inhibition in human liver microsomes, 2C19. In kind it is in vitro ADME. Particulars: pH 7.4, @ 10 μM concn. On the procedure: as §1

The target in the next data set is T6, CYP 2D6 (Homo sapiens, UniProt P10635).
T6 construct: from tissue; host or cells: human liver microsomes
T6 sequence (P10635 whole entry): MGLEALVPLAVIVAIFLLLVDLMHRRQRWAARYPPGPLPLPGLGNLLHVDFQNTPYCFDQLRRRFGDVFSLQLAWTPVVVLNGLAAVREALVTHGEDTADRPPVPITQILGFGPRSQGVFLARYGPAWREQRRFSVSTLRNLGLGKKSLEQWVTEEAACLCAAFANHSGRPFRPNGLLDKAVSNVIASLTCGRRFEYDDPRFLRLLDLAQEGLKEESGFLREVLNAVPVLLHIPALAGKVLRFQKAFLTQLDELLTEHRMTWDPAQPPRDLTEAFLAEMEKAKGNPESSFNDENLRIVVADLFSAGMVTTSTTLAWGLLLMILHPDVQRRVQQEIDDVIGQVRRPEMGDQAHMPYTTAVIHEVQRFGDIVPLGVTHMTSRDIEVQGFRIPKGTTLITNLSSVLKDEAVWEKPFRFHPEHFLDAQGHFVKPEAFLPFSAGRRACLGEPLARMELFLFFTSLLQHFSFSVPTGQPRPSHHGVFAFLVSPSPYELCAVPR
As to the kind of experiment: CYP inhibition in human liver microsomes, 2D6. The class given is in vitro ADME. Particulars: pH 7.4, @ 10 μM concn. The procedure: as §1

Another data set concerns the target T7, CYP 3A4 (Homo sapiens, UniProt P08684).
T7 construct: from tissue; host or cells: human liver microsomes
As to the kind of experiment: CYP inhibition in human liver microsomes, 3A4. In kind it is in vitro ADME. The conditions noted are these: pH 7.4, @ 10 μM concn. The procedure:
as §1

T1 sequence (Q06187 whole entry): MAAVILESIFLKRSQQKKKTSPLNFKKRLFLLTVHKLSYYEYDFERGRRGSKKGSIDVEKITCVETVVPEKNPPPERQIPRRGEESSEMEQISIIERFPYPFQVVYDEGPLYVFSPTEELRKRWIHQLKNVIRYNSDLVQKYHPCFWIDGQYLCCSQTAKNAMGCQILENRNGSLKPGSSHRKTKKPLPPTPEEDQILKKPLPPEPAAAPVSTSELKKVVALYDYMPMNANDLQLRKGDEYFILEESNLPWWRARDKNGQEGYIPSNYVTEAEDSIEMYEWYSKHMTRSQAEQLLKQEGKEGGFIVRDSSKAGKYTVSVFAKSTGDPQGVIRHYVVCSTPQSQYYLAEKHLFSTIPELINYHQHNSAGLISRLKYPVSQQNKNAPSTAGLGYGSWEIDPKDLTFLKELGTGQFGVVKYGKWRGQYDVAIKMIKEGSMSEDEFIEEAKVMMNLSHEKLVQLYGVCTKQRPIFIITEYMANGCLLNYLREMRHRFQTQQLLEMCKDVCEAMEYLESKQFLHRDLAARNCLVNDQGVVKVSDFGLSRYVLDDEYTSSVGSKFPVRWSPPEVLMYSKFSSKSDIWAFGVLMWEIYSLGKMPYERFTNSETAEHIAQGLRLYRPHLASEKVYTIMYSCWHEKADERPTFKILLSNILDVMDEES
T5 sequence (P33261 whole entry): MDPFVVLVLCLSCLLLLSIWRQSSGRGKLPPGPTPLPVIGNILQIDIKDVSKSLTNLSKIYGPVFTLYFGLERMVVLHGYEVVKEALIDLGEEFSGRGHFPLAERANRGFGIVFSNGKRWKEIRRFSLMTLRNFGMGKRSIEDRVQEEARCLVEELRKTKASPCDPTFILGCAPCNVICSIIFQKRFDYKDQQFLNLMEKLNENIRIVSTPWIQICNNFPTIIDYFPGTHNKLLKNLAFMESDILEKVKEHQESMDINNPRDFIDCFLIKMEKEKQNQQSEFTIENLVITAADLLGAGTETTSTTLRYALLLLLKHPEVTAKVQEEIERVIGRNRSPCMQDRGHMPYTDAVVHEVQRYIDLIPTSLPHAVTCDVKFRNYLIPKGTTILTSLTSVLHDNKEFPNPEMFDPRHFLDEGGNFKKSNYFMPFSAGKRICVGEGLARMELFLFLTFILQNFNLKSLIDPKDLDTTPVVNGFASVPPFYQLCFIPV
T4 sequence (P11712 whole entry): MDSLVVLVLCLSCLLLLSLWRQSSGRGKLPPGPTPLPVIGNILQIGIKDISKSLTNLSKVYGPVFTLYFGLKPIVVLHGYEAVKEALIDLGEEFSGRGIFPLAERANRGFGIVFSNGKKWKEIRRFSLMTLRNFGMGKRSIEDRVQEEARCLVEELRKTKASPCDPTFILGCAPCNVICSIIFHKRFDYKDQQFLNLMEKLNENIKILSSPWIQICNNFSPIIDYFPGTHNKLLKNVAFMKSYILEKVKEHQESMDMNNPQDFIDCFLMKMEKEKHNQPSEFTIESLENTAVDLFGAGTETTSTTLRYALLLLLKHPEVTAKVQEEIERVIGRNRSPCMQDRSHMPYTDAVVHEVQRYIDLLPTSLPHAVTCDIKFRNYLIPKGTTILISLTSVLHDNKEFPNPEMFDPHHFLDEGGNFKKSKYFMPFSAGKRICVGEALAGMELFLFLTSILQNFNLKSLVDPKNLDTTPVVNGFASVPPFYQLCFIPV
T7 sequence (P08684 whole entry): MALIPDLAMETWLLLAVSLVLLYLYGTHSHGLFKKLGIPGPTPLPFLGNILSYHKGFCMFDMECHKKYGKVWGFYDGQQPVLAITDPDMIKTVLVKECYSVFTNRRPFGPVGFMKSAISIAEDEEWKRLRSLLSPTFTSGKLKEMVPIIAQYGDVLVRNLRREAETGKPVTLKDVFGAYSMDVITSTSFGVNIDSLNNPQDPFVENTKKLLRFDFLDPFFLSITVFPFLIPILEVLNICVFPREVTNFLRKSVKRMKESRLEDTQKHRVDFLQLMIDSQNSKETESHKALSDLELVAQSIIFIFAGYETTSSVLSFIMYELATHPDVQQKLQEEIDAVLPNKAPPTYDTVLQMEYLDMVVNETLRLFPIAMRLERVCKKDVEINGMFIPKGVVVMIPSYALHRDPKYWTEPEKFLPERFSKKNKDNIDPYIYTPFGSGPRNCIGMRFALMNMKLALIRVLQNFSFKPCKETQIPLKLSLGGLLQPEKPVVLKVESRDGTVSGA

`C=CC(=O)N1CC2CC(n3nc(-c4ccc5ncsc5c4)c4c(N)ncnc43)CC2C1` (stereo not drawn) [Compound 2, 1-(5-(4-amino-3-(benzo[d]thiazol-6-yl)-1H-pyrazolo[3,4-d]pyrimidin-1-yl)hexahydrocyclopenta[c]pyrrol-2(1H)-yl)prop-2-en-1-one]: the IC50 in data set [1] amounted to 1.1 nM. Besides, the inhibition at 10 μM against CYP 1A2, against CYP 2C8, against CYP 2C9, on CYP 2C19, against CYP 2D6 and against CYP 3A4 was < 50% in each case.
Regarding `C=CC(=O)N1CC2CC(n3nc(-c4ccc(C(=O)Nc5cc(C)ccn5)c(OC)c4)c4c(N)ncnc43)CC2C1` (stereo not drawn) [Compound 29, 4-(1-(2-acryloyloctahydrocyclopenta[c]pyrrol-5-yl)-4-amino-1H-pyrazolo[3,4-d]pyrimidin-3-yl)-2-methoxy-N-(4-methylpyridin-2-yl)benzamide], the IC50 in data set [1] came out at 1.2 nM. The inhibition at 10 μM against CYP 1A2, against CYP 2C8, against CYP 2C9, on CYP 2C19, at CYP 2D6 and against CYP 3A4 was < 50% throughout.
For the molecule `C=CC(=O)N1CC2CC(n3nc(-c4ccc(C(=O)Nc5cc(C(F)(F)F)ccn5)cc4)c4c(N)ncnc43)CC2C1` (stereo not drawn) [Compound 40, 4-(1-(2-acryloyloctahydrocyclopenta[c]pyrrol-5-yl)-4-amino-1H-pyrazolo[3,4-d]pyrimidin-3-yl)-N-(4-(trifluoromethyl)pyridin-2-yl)benzamide], the IC50 in data set [1] turned out to be 6 nM. The inhibition at 10 μM is > 50% at CYP 1A2; < 50% at CYP 2C8; > 50% at CYP 2C9; < 50% against CYP 2C19; < 50% at CYP 2D6; < 50% against CYP 3A4.
As to `C=CC(=O)N1CC2CC(n3nc(-c4ccc(Oc5cccnc5)cc4)c4c(N)ncnc43)CC2C1` (stereo not drawn) [Compound 52, 1-(5-(4-amino-3-(4-(pyridin-3-yloxy)phenyl)-1H-pyrazolo[3,4-d]pyrimidin-1-yl)hexahydrocyclopenta[c]pyrrol-2(1H)-yl)prop-2-en-1-one], the IC50 in data set [1] is 162 nM. Moreover, the inhibition at 10 μM against CYP 1A2 is > 50%; against CYP 2C8, < 50%; on CYP 2C9, < 50%; at CYP 2C19, > 50%; on CYP 2D6, < 50%; against CYP 3A4, > 50%.
For `C=CC(=O)N1CC2CC(n3nc(-c4ccc(NC(=O)c5ccccc5)cc4)c4c(N)ncnc43)CC2C1` (stereo not drawn) [Compound 38, N-(4-(1-(2-acryloyloctahydrocyclopenta[c]pyrrol-5-yl)-4-amino-1H-pyrazolo[3,4-d]pyrimidin-3-yl)phenyl)benzamide], the IC50 in data set [1] was 17 nM. Also, the inhibition at 10 μM against CYP 1A2 is < 50%; on CYP 2C8, < 50%; against CYP 2C9, < 50%; at CYP 2C19, < 50%; against CYP 2D6, > 50%; on CYP 3A4, < 50%.
`C#CC(=O)N1CC2CC(n3nc(-c4ccc(Oc5ccccc5)cc4)c4c(N)ncnc43)CC2C1` (stereo not drawn) [Compound 11, 1-(5-(4-amino-3-(4-phenoxyphenyl)-1H-pyrazolo[3,4-d]pyrimidin-1-yl)hexahydrocyclopenta[c]pyrrol-2(1H)-yl)prop-2-yn-1-one]: the IC50 in data set [1] is 13 nM. For the same molecule, the inhibition at 10 μM on CYP 1A2, on CYP 2C8, at CYP 2C9, against CYP 2C19, at CYP 2D6 and against CYP 3A4 was < 50% throughout.
`C=CC(=O)N1CC2CC(n3nc(-c4ccc(C(=O)Nc5cc(C)ccn5)cc4)c4c(N)ncnc43)CC2C1` (stereo not drawn) [Compound 30, 4-(1-(2-acryloyloctahydrocyclopenta[c]pyrrol-5-yl)-4-amino-1H-pyrazolo[3,4-d]pyrimidin-3-yl)-N-(4-methylpyridin-2-yl)benzamide]: the IC50 in data set [1] came out at 6 nM. Besides, the inhibition at 10 μM on CYP 1A2, against CYP 2C8, at CYP 2C9, at CYP 2C19, at CYP 2D6 and against CYP 3A4 was < 50% each time.
With `CN(C)C/C=C/C(=O)N1CC2CC(n3nc(-c4ccc(C(=O)Nc5cc(C(F)(F)F)ccn5)cc4)c4c(N)ncnc43)CC2C1` (stereo not drawn) [Compound 51, (E)-4-(4-amino-1-(2-(4-(dimethylamino)but-2-enoyl)octahydrocyclopenta [c]pyrrol-5-yl)-1H-pyrazolo[3,4-d]pyrimidin-3-yl)-N-(4-(trifluoromethyl)pyridine-2-yl)benzamide], in data set [1], the IC50 is 100 nM. Further, the inhibition at 10 μM against CYP 1A2 is < 50%; against CYP 2C8, > 50%; on CYP 2C9, > 50%; at CYP 2C19, < 50%; against CYP 2D6, < 50%; on CYP 3A4, > 50%.
For `CN(C)C/C=C/C(=O)N1CC2CC(n3nc(-c4ccc(C(=O)Nc5ccccn5)cc4)c4c(N)ncnc43)CC2C1` (stereo not drawn) [Compound 44, (E)-4-(4-amino-1-(2-(4-(dimethylamino)but-2-enoyl)octahydrocyclopenta [c]pyrrol-5-yl)-1H-pyrazolo[3,4-d]pyrimidin-3-yl)-N-(pyridin-2-yl) benzamide], the IC50 in data set [1] came to 1.4 nM. Moreover, the inhibition at 10 μM on CYP 1A2, on CYP 2C8, against CYP 2C9, on CYP 2C19, against CYP 2D6 and against CYP 3A4 was < 50% each time.

By IC50 is commonly meant the point on the concentration scale where inhibition reaches its midpoint. The inhibition is the relative decrease from the control value, in per cent. Low values mean a weak effect, high ones a strong effect.
